Consider one compound from patent US11344559B2, “PI3KGAMMA inhibitors” (The Regents of the University of California, priority 2019, dated 2022).

Holding throughout (type): cell-based
Assay [1] relates to IL12b protein levels. The experiment in a line: Primary screening: IL12b protein ELISA in M1 polarized bone marrow derived macrophages. The settings on record: Z score of IL12b protein (ELISA); 1 μM compound, 24 h, IFNg+LPS (M1) polarized bone marrow derived macrophages. The method, then: (§1) Primary screening was performed on 507 compounds identified by the above-described computational screening. Bone marrow derived macrophages were plated into 96 well plates at d7 post-harvest and incubated with 1 μM compound and polarization reagents for 24 h. Primary screening was performed on cells polarized with interferon gamma (IFNg)+Lipopolysaccharide (LPS) (M1 polarization). Methods of inducing macrophage polarization are known in the art, e.g., as described in Mosser et al., Curr. Protoc. Immunol. 2008 November; Chapter 14:Unit 14.2. doi: 10.1002/0471142735.im1402s83. After 24 h, cell supernatants were removed and screened for IL12b and CCL2 protein levels using an enzyme linked immunosorbent assay (ELISA). Additionally, viability of polarized macrophages incubated with compounds was measured using an MTT assay, a colorimetric assay that measures cell metabolic activity by quantifying NAD(P)H-dependent cellular oxidoreductase reduction of the tetrazolium dye MTT 3-(4,5-dimethylthiazol-2-yl)-2,5-diphenyltetrazolium bromide to its insoluble purple colored formazan. Compounds that increased IL12b protein levels or decreased CCL2 protein levels and reduced viability less than 10% were selected for secondary screening. Secondary screening was performed as described for primary screening with a subset of 141 of the original compounds.
(An ELISA detects its analyte on a solid surface through an enzyme-linked reagent.)

The test system of assay [2] is IL12b protein levels. The experiment in a line: Secondary screening: IL12b protein ELISA in M1 polarized bone marrow derived macrophages. The settings on record: Z score of IL12b protein (ELISA); 1 μM compound, 24 h, IFNg+LPS (M1) polarized bone marrow derived macrophages. The method, then:
as §1

In assay [3] the test system is IL12b protein levels. The experiment in a line: IL12b protein expression (ELISA) after M1 polarization with bulk synthesized compounds. The following applies: 10 micromolar compound 1 h before IFNgamma+LPS (M1) polarization, supernatants 24 h post-stimulation, read-out: IL12B protein expression (Percent of Control). The method, then: Compounds with the highest activity levels in the primary, secondary and tertiary screening assays were resynthesized in bulk and then tested for their effects on protein expression of inflammatory cytokines after M1 (IFNg+LPS) macrophage polarization. Bone marrow derived macrophages were plated into 12 well plates at d7 post-harvest and incubated for 1 h with 10 micromolar compound prior to polarization in the presence of bulk synthesized compounds 1-14. Cells were then polarized by the addition of either IFNgamma+LPS (M1) and cell supernatants were harvested 24 h post-stimulation. Methods of inducing macrophage polarization are known in the art, e.g., as described in Mosser et al., Curr. Protoc. Immunol. 2008 November; Chapter 14:Unit 14.2. doi: 10.1002/0471142735.im1402s83. After 24 h, cell supernatants were removed and screened for IL12b protein levels using an enzyme linked immunosorbent assay (ELISA). Increases in IL12b protein levels induced by compounds were recorded as percent increase in IL12b protein expression compared to IL12b expression in the absence of compounds.

The subject of assay [4] is CCL2 protein levels. As to the kind of experiment: Secondary screening: CCL2 protein ELISA in M1 polarized bone marrow derived macrophages. The following applies: Z score of CCL2 protein (ELISA); 1 μM compound, 24 h, IFNg+LPS (M1) polarized bone marrow derived macrophages. On the procedure:
as §1

Another assay deals with TGF-beta expression. The experiment in a line: RNA screening: TGF-beta expression in M2 (IL-4) polarized macrophages, quantitative RT-PCR. The following applies: mRNA vs control; 1 μM compound 1 h before IL-4 (M2) polarization, mRNA harvested 6 h post-stimulation. On the procedure:
(§2) Compounds with the highest activity levels in the primary and secondary screening assays were tested for their effects on transcription of inflammatory cytokines after M1 (IFNg+LPS) and M2 (IL-4) macrophage polarization. Bone marrow derived macrophages were plated into 12 well plates at d7 post-harvest and incubated for 1 h with 1 μM compound prior to polarization. Cell were then polarized by the addition of either IFNgamma+LPS (M1) or IL-4 (M2) and mRNA was harvested 6 h post-stimulation. Quantitative RT-PCR was used to determine the levels of IL-1beta expression in M1 polarized macrophages and of Arginase-1 and TGF-beta expression in M2 polarized macrophages. Compounds were selected from RNA screening that increased IL-1beta expression or decreased Arginase-1 or TGF-beta expression.

For assay [5], the system named is CCL2 protein levels. The experiment in a line: Primary screening: CCL2 protein ELISA in M1 polarized bone marrow derived macrophages. The following applies: Z score of CCL2 protein (ELISA); 1 μM compound, 24 h, IFNg+LPS (M1) polarized bone marrow derived macrophages. The method, then: as §1
Another assay relates to IL-1beta expression. As to the kind of experiment: RNA screening: IL-1beta expression in M1 (IFNg+LPS) polarized macrophages, quantitative RT-PCR. On the set-up: key: −: significant decrease in mRNA vs control (mRNA levels above 50% of control); −−: significant decrease in mRNA vs control (mRNA levels below 50% of control); +: significant increase in mRNA vs control; =: no significant change vs control. The settings on record: mRNA vs control; 1 μM compound 1 h before IFNgamma+LPS (M1) polarization, mRNA harvested 6 h post-stimulation. The method, then: as §2

For the next assay, the system named is Arginase-1 expression. As to the kind of experiment: RNA screening: Arginase-1 expression in M2 (IL-4) polarized macrophages, quantitative RT-PCR. The settings on record: Macrophage; mRNA vs control; 1 μM compound 1 h before IL-4 (M2) polarization, mRNA harvested 6 h post-stimulation; read-out: RNA Screening IL-4 Arg 1. On the procedure:
as §2

As to `OCCc1cn(C2CCN(Cc3cccnc3)CC2)nn1` [Compound 11, 2-{1-[1-(3-pyridinylmethyl)-4-piperidinyl]-1H-1,2,3-triazol-4-yl}ethanol], in the assay with IL12b protein levels [1], the “Primary Screen ZIL12b” value is listed as −1.17. The “Secondary Screen ZIL12b” value in the assay with IL12b protein levels [2] worked out at 2.04. In the assay on IL12b protein levels [3], the activity at 10 µM came out at 127%. The “Secondary Screen ZCCL2” value in the assay with CCL2 protein levels [4] was −1.46. In the assay on TGF-beta expression, the “RNA Screening IL-4 Tgfb” value is recorded as “− (significant decrease in mRNA vs control (mRNA levels above 50% of control))”. Also, the “Primary Screen ZCCL2” value with CCL2 protein levels [5] is −2.99. Further, the “RNA Screening Ifng + LPS Il1b” value in the assay with IL-1beta expression is on record as “+”. Further, the mrna remaining at 1 µM with Arginase-1 expression is < 50%.
